The Kinase Knowledgebase extract (Sharma et al. 2016)

molecular target: PIK3CA (human) (UniProt P42336); assay: Assessment of PIK3CA Kinase Activity
Sequence (P42336 whole entry, looked up): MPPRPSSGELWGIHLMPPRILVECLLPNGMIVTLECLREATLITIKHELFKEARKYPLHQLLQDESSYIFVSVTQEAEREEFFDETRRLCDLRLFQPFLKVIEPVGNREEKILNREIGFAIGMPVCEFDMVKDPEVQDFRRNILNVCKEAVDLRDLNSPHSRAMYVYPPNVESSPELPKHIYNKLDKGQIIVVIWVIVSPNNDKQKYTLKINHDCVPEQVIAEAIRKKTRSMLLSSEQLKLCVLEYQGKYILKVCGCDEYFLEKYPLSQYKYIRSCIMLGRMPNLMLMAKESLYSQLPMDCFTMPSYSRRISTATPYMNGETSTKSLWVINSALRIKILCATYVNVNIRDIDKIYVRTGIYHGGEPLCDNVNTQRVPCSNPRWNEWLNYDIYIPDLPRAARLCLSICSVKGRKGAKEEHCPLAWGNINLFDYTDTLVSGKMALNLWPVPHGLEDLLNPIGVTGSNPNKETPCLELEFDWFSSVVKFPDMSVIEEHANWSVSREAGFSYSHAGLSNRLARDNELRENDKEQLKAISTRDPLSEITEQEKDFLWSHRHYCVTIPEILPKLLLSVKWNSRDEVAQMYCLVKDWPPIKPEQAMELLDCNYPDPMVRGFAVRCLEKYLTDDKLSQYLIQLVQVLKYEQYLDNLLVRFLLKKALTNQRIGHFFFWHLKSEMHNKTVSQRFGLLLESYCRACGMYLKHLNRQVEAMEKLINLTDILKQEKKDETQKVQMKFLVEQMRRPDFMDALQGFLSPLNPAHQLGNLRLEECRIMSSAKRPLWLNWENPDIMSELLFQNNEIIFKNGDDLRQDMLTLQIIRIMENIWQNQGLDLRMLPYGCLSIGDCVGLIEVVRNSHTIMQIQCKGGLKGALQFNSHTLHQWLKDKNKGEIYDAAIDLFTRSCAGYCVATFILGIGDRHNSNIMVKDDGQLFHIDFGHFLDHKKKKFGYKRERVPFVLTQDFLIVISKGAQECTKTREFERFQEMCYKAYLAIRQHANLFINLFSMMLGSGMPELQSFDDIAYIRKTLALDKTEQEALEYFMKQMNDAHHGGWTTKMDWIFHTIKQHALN

IC50, < 1000 nM:
NC(=O)CNc1ccc2c(c1)OCCn1cc(-c3ncnn3CC(F)(F)F)nc1-2, CSc1nc(-c2cn3c(n2)-c2ccc(Br)cc2OCC3)n(C(C)C)n1, CC(C)n1ncnc1-c1cn2c(n1)-c1ccc(N3CC(N)(CO)C3)cc1OCC2, Fc1ccc(-n2ncnc2-c2cn3c(n2)-c2cnc(NCc4ncc[nH]4)cc2OCC3)c(F)c1, CC(C)n1ncnc1-c1cn2c(n1)-c1ccc(N3C[C@@H](F)C[C@H]3C(N)=O)cc1OCC2, COC[C@H](Nc1ccc2c(c1)OCCn1cc(-c3ncnn3CC(F)(F)F)nc1-2)C(N)=O
